The values that follow come from PubChem BioAssay (NCI).

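Five concentrations, 48 hours, 96-well plates. TGI: total growth inhibition.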 Some results are limits rather than exact numbers.

Among the test systems are SF-268 CNS; CCRF-CEM leukemia; NCI-H522 lung; MOLT-4 leukemia.
What all share (test): DTP human tumour cell line panel, 48 h

In the case of `COc1cccc(C2ON=C(c3ccccc3)N2C23CC4CC(CC(C4)C2)C3)c1` (configuration not stated), the TGI with SF-268 CNS, in the experiment with CCRF-CEM leukemia, with NCI-H522 lung and with MOLT-4 leukemia was over 10 µM throughout.

`COC(=O)[C@@]1(Cc2ccc(O)cc2)C[C@@H]2Cc3ccccc3N2N1`: the TGI with SF-268 CNS, in the experiment on NCI-H522 lung and with MOLT-4 leukemia was over 100 µM each time.

As for `N#CCCN(CCC#N)c1ccc(C(N=Nc2ccccc2)=Nc2ccc(Cl)cc2)cc1`, the TGI in the experiment on SF-268 CNS, with CCRF-CEM leukemia, in the experiment on NCI-H522 lung and with MOLT-4 leukemia was over 100 µM throughout.

Take `CCOC(=O)NC(C(=O)OCC)(N1CCN(c2cc3c(cc2F)c(=O)c(C(=O)O)cn3CC)CC1)C(F)(F)F` (configuration not stated): the TGI in the experiment on SF-268 CNS, in the experiment with CCRF-CEM leukemia, in the experiment on NCI-H522 lung and in the experiment on MOLT-4 leukemia was over 100 µM throughout.

As for `COc1cc(C(=O)C2C(=O)c3ccccc3C2C2(O)c3ccccc3CC2C(O)c2cc(OC)c(OC)c(OC)c2)cc(OC)c1OC` (configuration not stated), the TGI with SF-268 CNS and with MOLT-4 leukemia was over 100 µM each time.

For `CCOC(=O)C1=c2[nH]c3cccc4cccc(c43)n2C(=O)CC1c1ccccc1` (configuration not stated), the TGI in the experiment on SF-268 CNS, in the experiment on CCRF-CEM leukemia, in the experiment with NCI-H522 lung and in the experiment with MOLT-4 leukemia was over 100 µM each time.

Take `CCOC(=O)C(=[N+]=[N-])C(=O)CN1C(=O)C2CC(C)=C(C)CC2C1O` (configuration not stated): the TGI in the experiment on SF-268 CNS, with CCRF-CEM leukemia, with NCI-H522 lung and in the experiment on MOLT-4 leukemia was over 100 µM in each case.

For the compound `O=c1oc2ccccc2c(O)c1/C=N/C(=S)NCc1ccccc1`, the TGI in the experiment with MOLT-4 leukemia was over 100 µM.

For the compound `CO/C(=C/C(=O)C(Cl)(Cl)Cl)CC/C(=C\C(=O)C(Cl)(Cl)Cl)OC`, the total growth inhibition concentration (TGI) is over 100 µM in the experiment on SF-268 CNS, over 100 µM with CCRF-CEM leukemia, 57.5 µM in the experiment on NCI-H522 lung and over 100 µM in the experiment on MOLT-4 leukemia.

Take `Cc1cc(=O)[nH]c2cc(NC(=O)C(CCCN=C(N)N)NC(=O)OCc3ccccc3)ccc12` (configuration not stated): the TGI in the experiment on SF-268 CNS, in the experiment with CCRF-CEM leukemia, with NCI-H522 lung and in the experiment on MOLT-4 leukemia was over 100 µM each time.

Regarding `CCOC(=O)/C(N=Nc1ccc(-n2c(C)nc3ccc(Br)cc3c2=O)cc1)=C(/C)O`, the TGI in the experiment on SF-268 CNS, in the experiment with CCRF-CEM leukemia and in the experiment on MOLT-4 leukemia was over 100 µM throughout.

As for `OC(c1cc2ccccc2[nH]1)C1(c2cccnc2)SCCCS1` (configuration not stated), the TGI in the experiment on SF-268 CNS, with NCI-H522 lung and in the experiment with MOLT-4 leukemia was over 100 µM throughout.

Turning to `CCCCc1ccc(-n2sc3ncc([N+](=O)[O-])cc3c2=O)cc1`, the TGI in the experiment on SF-268 CNS stood at 37.1 µM; with CCRF-CEM leukemia, 32.4 µM; in the experiment with NCI-H522 lung, 9.36 µM; in the experiment with MOLT-4 leukemia it was 53.7 µM.

In the case of `CSc1c(C(=O)Nc2ccc(C)cc2)c(N)n(N)c(=O)c1C#N`, the TGI with SF-268 CNS, in the experiment on CCRF-CEM leukemia, with NCI-H522 lung and with MOLT-4 leukemia was over 100 µM throughout.

With `O=C1C(Cl)C2(CC(/C=C/c3ccccc3O)=NN2c2cccc(S(=O)(=O)O)c2)N1c1nc2ccccc2s1` (configuration not stated), the TGI in the experiment on SF-268 CNS was 43.4 µM; with CCRF-CEM leukemia it was 34.7 µM; with NCI-H522 lung it was 14.6 µM; in the experiment on MOLT-4 leukemia, 47.7 µM.

Regarding `Cc1c(/C=N/NC(=S)Nc2ccccc2)c(=O)n(-c2ccccc2)n1C`, the TGI in the experiment on SF-268 CNS, in the experiment with CCRF-CEM leukemia and in the experiment on MOLT-4 leukemia was over 100 µM in each case.

Consider `Cc1cc(C)c2c(c1)C1=NCCN1C2(O)c1ccc(Cl)cc1` (configuration not stated), for which the TGI is 31 µM with SF-268 CNS, 54.7 µM with CCRF-CEM leukemia and over 100 µM in the experiment on MOLT-4 leukemia.

On to `COC(=O)C1(C(=O)OC)N=C(C)OC1c1ccccn1` (configuration not stated), for which the TGI in the experiment on CCRF-CEM leukemia and with MOLT-4 leukemia was over 100 µM each time.

For the compound `O=C(O)CC1NC(/C(=C/c2ccccc2O)NC(=O)c2ccccc2)OC1=O` (configuration not stated), the TGI in the experiment with SF-268 CNS was over 45.1 µM; with CCRF-CEM leukemia it was over 100 µM; in the experiment with NCI-H522 lung, over 100 µM; in the experiment with MOLT-4 leukemia, over 100 µM.

Regarding `CC1CCCCN1CC(=O)c1ccc2c(c1)Sc1ccccc1O2` (configuration not stated), the results for the TGI in the experiment with SF-268 CNS, with CCRF-CEM leukemia and in the experiment with MOLT-4 leukemia were 34.2 µM, 44.4 µM and over 100 µM, respectively.

With `O=C(NNC(=S)Nc1ccc(Br)cc1)c1cc(-c2ccccc2)nc2ccccc12`, the TGI is over 100 µM in the experiment on SF-268 CNS, 42.8 µM in the experiment with CCRF-CEM leukemia, 59 µM in the experiment on NCI-H522 lung and 52.9 µM with MOLT-4 leukemia.

As to `COC1=CC(=O)c2c(cc(COP(=O)(OCC3OC(n4cc(F)c(=O)[nH]c4=O)CC3O)N(C)CCCCCl)n2C)C1=O` (configuration not stated), the TGI in the experiment with SF-268 CNS is 16.1 µM; in the experiment with CCRF-CEM leukemia, over 100 µM; with NCI-H522 lung, 19.1 µM; in the experiment with MOLT-4 leukemia, over 54 µM.

Regarding `Cc1ccc(C2SCC(=O)N2c2ccc(-c3ccc(-n4c(-c5ccccc5)nc5ccccc5c4=O)cc3)cc2)cc1` (configuration not stated), the TGI in the experiment with SF-268 CNS, with CCRF-CEM leukemia, in the experiment with NCI-H522 lung and in the experiment on MOLT-4 leukemia was over 100 µM throughout.

As to `O=C(COc1ccc(OCC(=O)NNC2=NC(c3cc(F)c(Cl)cc3Cl)CS2)c(Cl)c1)NNC1=NC(c2cc(F)c(Cl)cc2Cl)CS1` (configuration not stated), the figures for the TGI with CCRF-CEM leukemia, with NCI-H522 lung and in the experiment with MOLT-4 leukemia were over 100 µM, 34.5 µM and over 100 µM, respectively.

Regarding `Nn1c(CCCCCCCCc2nnc(COc3ccccc3)n2N)nnc1COc1ccccc1`, the TGI in the experiment with SF-268 CNS, in the experiment with NCI-H522 lung and in the experiment on MOLT-4 leukemia was over 100 µM each time.

Regarding `N#CCOc1ccc(/C=C/C(=O)c2ccc(Cl)cc2)cc1`, the TGI in the experiment on SF-268 CNS, in the experiment on CCRF-CEM leukemia and in the experiment with MOLT-4 leukemia was over 100 µM throughout.

Consider `O=C(Nc1nc(C23CC4CC(CC(C4)C2)C3)cs1)c1cc2cc(Cl)ccc2oc1=O`, for which the TGI with CCRF-CEM leukemia, in the experiment on NCI-H522 lung and with MOLT-4 leukemia was over 100 µM throughout.

For `Cc1ccc(Nc2[nH]c(=O)[nH]c(=O)c2C)cc1Cl`, the TGI in the experiment with SF-268 CNS and in the experiment on NCI-H522 lung was over 100 µM throughout.

Consider `Cc1ccc(N=C2S/C(=C3/CCC=C3N3CCOCC3)N(c3ccc(Cl)cc3)C2=Nc2ccc(C)cc2)cc1`, for which the TGI in the experiment on MOLT-4 leukemia is over 100 µM.

In the case of `CC(C)(C)OC(=O)NCCC(=O)NC1(c2cc3ccccc3s2)CCCCC1`, the TGI is 27.5 µM in the experiment on CCRF-CEM leukemia, 26.2 µM with NCI-H522 lung and 28.5 µM with MOLT-4 leukemia.

For `CN(C)CC1CCC/C(=C\c2ccc(OC(=O)/C=C/c3ccccc3)cc2)C1=O` (configuration not stated), the TGI in the experiment with SF-268 CNS is 8.67 µM; in the experiment with CCRF-CEM leukemia, 0.808 µM; in the experiment with MOLT-4 leukemia, over 37.1 µM.

Take `NNC1=N/C(=C\c2ccco2)C(=O)N1`: the TGI in the experiment with NCI-H522 lung and with MOLT-4 leukemia was over 100 µM in each case.
